Holding throughout (assay type): in vivo, mouse
In assay [1] the test system is wild-type hepatitis B virus. As to the kind of experiment: Antiviral drug treatment of HBV transgenic mice with wild-type HBV genome, amount of virus in serum. The source says:
(§1) According to the present invention, the drug resistant HBV genome is resistant to an antiviral nucleoside analogue, such as adefovir or lamivudine.
(§2) The upper and lower limits of the rectangles in the figure are quartiles, and the horizontal lines within the rectangles indicate the median. Mann-Whitney U test was used for statistical analysis, and p=0.0093, showing the significant differences.

Assay [2] concerns drug resistant HBV genome. As to the kind of experiment: Antiviral drug treatment of HBV transgenic mice with drug resistant HBV genome, amount of virus in serum. The note with it: compared with wild-type HBV genome mice.
Text: as §1, §2

Assay [3] deals with HBV. As to the kind of experiment: Long-term use and withdrawal of HBV antiviral drugs in hybrid mice (HBV transgenic x miR-122 knock-out), viral load. The note with it: six-month-old hybrid mice, ETV 5 or 1 mg/kg; for amount of virus after one month of medication (M1) / amount of virus after one month of withdrawal (M2): TDF 135 or 50 mg/kg. On the procedure: Six-month-old hybrid mice were fed with different doses of TDF (135 or 50 mg/kg-day) and […] (5 or 1 mg/kg-day).
(Wu & Wu et al. Gastroenterology 2014). At present, nucleoside analogues that are more commonly used clinically are tenofovir (TDF) and entecavir (ETV), which have strong antiviral efficacy and rarely have drug resistance. Reactivation of the virus and recurrence of hepatitis occurred more frequently and early after withdrawal of tenofovir (TDF) than after withdrawal of entecavir (ETV). Withdrawal of tenofovir (TDF) may sometimes cause liver failure for some unknown reason. The effect of long-term use and withdrawal of HBV antiviral drug tenofovir (TDF) and entecavir (ETV) on the amount of virus was compared. Six-month-old hybrid mice were fed with different doses of TDF (135 or 50 mg/kg) and ETV (5 or 1 mg/kg). […] Studies of efficacy and side effects of long-term use of tenofovir (TDF) or entecavir (ETV) on reducing hepatitis by using the hybrid mice are going on, and valuable clinical data will be provided.

The structures appear in SMILES notation.

From patent publication US12349665B2, “Animal model for hepatocellular carcinoma and uses thereof” (TAIPEI VETERANS GENERAL HOSPITAL, priority 2019, dated 2025) come the findings set out here.

As to `Nc1ncnc2c1ncn2CCOCP(=O)(O)O` [adefovir], the “amount of serum virus after treatment with antiviral drug” value in assay [1] is “decreased by more than a thousand times”; in assay [2] it was “decreased much less”.

On to `C=C1[C@H](CO)[C@@H](O)C[C@@H]1n1cnc2c(=O)[nH]c(N)nc21` [ETV, entecavir], for which, in assay [3], the “amount of virus after 3 months of withdrawal (M4)” value lay within 1.0E+5 to 1.0E+6, the “amount of virus after 6 months of withdrawal (M7)” value was “rose to the level before the medication (M0)”, the “amount of virus after one month of medication (M1)” value was “reduce the amount of virus to a minimum” and the “amount of virus after one month of withdrawal (M2)” value is “maintained at the lower level”.

On to `CC(C)OC(=O)OCOP(=O)(CO[C@H](C)Cn1cnc2c(N)ncnc21)OCOC(=O)OC(C)C.O=C(O)/C=C/C(=O)O` [TDF, tenofovir], for which, in assay [3], the “amount of virus after one month of medication (M1)” value was “reduce the amount of virus to a minimum” and the “amount of virus after one month of withdrawal (M2)” value is recorded as “quickly rose to the level before medication (M0)”.
